In publication PMC12721191, “Oxidative hypoxia drives TGF-β1–induced fibrosis under normoxia” (Redox Biology, 2025):

Key:
CYP2C8 = molecular target: T1, CYP2C8 (Homo sapiens, UniProt P10632); experiment: Cytochrome P450 inhibition assay in HLMs; assay type: in vitro ADME; conditions: pooled human liver microsomes, probe amodiaquine (N-deethylation), up to 50 μM
T1 construct: tissue Xenotech H0630; host or cells: pooled human liver microsomes
T1 sequence (P10632 1-490): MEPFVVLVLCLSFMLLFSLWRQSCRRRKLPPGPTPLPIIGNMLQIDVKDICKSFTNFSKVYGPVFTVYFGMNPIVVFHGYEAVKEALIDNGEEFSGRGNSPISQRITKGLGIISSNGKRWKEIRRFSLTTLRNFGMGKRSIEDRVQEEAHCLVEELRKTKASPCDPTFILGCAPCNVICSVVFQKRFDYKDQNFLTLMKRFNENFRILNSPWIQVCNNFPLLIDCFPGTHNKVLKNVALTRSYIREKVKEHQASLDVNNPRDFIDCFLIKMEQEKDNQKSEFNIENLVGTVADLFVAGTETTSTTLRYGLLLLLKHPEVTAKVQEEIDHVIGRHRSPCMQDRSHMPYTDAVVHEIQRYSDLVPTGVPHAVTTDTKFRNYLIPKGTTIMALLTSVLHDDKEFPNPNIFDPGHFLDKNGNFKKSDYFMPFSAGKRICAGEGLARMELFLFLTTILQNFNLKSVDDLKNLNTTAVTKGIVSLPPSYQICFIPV
Description: (§1) All experiments were performed in triplicate. Phenacetin O-deethylase, coumarin hydroxylase, bupropion hydroxylase, amodiaquine N-deethylase, tolbutamide 4-hydroxylase, S-mephenytoin hydroxylase, dextromethorphan O-demethylase, chlorozoxazone 6-hydroxylase, and midazolam 1’-hydroxylase activities were determined as probe activities for CYP1A2, CYP2A6, CYP2B6, CYP2C8, CYP2C9, CYP2C19, CYP2D6, CYP2E1, and CYP3A, respectively, using cocktail incubation and tandem mass spectrometry, as described previously^2,3.

CYP2C19 = molecular target: T2, CYP2C19 (Homo sapiens, UniProt P33261); experiment: Cytochrome P450 inhibition assay in HLMs; assay type: in vitro ADME; conditions: pooled human liver microsomes, probe S-mephenytoin (4-hydroxylation), up to 50 μM
T2 construct: tissue Xenotech H0630; host or cells: pooled human liver microsomes
T2 sequence (P33261 whole entry): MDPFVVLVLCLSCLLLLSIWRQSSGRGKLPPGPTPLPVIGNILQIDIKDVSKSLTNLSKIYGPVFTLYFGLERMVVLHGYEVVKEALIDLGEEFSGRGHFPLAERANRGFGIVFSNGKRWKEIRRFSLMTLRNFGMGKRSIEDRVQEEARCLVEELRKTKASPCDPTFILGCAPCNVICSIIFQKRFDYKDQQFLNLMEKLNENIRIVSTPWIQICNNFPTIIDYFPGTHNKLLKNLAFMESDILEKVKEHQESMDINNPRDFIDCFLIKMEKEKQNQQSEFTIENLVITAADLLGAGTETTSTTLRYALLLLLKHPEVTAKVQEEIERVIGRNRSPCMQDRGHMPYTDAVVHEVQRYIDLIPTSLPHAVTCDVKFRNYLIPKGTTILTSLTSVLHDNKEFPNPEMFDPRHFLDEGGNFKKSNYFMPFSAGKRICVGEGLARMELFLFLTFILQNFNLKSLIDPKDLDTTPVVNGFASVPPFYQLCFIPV
Description: as §1

CYP1A2 = molecular target: T3, CYP1A2 (Homo sapiens, UniProt P05177); experiment: Cytochrome P450 inhibition assay in HLMs; assay type: in vitro ADME; conditions: Phenacetin O-deethylation, pooled HLMs, up to 50 μM
T3 sequence (P05177 1-516): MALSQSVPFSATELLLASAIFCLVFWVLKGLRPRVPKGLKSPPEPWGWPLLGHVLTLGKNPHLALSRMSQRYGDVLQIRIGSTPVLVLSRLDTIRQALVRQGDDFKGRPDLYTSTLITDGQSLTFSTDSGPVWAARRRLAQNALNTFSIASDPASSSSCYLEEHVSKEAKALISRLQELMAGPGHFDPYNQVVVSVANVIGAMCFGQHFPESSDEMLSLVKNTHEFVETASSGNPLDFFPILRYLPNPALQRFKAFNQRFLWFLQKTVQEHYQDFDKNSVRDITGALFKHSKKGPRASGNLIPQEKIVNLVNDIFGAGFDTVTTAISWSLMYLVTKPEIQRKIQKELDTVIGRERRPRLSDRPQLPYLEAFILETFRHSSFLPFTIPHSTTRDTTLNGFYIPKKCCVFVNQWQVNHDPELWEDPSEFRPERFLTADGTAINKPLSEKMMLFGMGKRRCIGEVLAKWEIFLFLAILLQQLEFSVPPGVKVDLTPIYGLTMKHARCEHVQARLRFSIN
Description: as §1, with “Cytochrome P450 Inhibition Assay: […] All” for “All”

CYP2D6 = molecular target: T4, CYP2D6 (Homo sapiens, UniProt P10635); experiment: Cytochrome P450 inhibition assay in HLMs; assay type: in vitro ADME; conditions: Dextromethorphan O-demethylation, pooled HLMs, up to 50 μM
T4 construct: tissue Xenotech H0630; host or cells: pooled human liver microsomes
T4 sequence (P10635 whole entry): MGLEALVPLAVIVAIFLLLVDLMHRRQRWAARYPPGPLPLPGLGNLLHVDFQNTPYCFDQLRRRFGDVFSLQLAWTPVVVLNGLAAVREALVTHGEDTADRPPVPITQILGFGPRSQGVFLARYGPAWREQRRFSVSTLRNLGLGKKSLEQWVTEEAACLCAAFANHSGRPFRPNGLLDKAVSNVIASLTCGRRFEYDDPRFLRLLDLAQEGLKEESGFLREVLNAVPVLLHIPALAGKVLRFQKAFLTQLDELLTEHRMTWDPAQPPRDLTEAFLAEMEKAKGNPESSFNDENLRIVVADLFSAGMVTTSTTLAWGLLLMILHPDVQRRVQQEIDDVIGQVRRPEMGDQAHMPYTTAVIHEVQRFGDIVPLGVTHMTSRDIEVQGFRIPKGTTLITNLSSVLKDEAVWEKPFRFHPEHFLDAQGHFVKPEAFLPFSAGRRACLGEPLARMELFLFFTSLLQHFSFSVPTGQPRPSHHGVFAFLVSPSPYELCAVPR
Description: as §1, with “Cytochrome P450 Inhibition Assay: […] All” for “All”

CYP2E1 = molecular target: T5, CYP2E1 (Homo sapiens, UniProt P05181); experiment: Cytochrome P450 inhibition assay in HLMs; assay type: in vitro ADME; conditions: Chlorozoxazone 6-hydroxylation, pooled HLMs, up to 50 μM
T5 construct: tissue Xenotech H0630; host or cells: pooled human liver microsomes
T5 sequence (P05181 whole entry): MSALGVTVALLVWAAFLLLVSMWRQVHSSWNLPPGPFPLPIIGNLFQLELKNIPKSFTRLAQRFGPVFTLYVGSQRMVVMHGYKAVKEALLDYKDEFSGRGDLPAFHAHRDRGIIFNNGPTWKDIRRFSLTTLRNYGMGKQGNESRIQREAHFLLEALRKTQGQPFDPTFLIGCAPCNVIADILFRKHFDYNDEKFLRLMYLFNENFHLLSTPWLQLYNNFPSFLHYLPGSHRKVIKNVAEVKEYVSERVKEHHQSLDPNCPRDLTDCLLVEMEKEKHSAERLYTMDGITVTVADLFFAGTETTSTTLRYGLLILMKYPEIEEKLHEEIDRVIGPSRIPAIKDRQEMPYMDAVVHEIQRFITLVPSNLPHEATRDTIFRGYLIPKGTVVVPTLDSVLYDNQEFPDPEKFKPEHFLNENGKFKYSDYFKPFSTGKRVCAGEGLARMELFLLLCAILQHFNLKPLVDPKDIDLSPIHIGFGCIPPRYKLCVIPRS
Description: as §1, with “Cytochrome P450 Inhibition Assay: […] All” for “All”

CYP2C9 = molecular target: T6, CYP2C9 (Homo sapiens, UniProt P11712); experiment: Cytochrome P450 inhibition assay in HLMs; assay type: in vitro ADME; conditions: Diclofenac 4-hydroxylation, pooled HLMs, up to 50 μM
T6 construct: tissue Xenotech H0630; host or cells: pooled human liver microsomes
T6 sequence (P11712 whole entry): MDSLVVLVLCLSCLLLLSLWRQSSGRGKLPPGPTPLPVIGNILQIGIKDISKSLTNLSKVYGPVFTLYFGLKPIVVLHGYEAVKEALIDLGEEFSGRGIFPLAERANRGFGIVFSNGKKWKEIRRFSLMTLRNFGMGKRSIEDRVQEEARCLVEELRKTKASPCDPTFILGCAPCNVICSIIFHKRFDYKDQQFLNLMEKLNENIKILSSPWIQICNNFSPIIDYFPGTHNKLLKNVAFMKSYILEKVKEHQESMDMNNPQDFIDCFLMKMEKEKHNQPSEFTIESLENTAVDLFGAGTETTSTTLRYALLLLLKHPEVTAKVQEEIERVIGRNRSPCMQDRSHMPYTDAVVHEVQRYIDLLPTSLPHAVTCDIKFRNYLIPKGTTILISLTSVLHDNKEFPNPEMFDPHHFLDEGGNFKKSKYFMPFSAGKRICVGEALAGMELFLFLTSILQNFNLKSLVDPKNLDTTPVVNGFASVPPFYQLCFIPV
Description: as §1, with “Cytochrome P450 Inhibition Assay: […] All” for “All”

CYP2A6 = molecular target: T7, CYP2A6 (Homo sapiens, UniProt P11509); experiment: Cytochrome P450 inhibition assay in HLMs; assay type: in vitro ADME; conditions: Coumarin 7-hydroxylation, pooled HLMs, up to 50 μM
T7 construct: tissue Xenotech H0630; host or cells: pooled human liver microsomes
T7 sequence (P11509 1-494): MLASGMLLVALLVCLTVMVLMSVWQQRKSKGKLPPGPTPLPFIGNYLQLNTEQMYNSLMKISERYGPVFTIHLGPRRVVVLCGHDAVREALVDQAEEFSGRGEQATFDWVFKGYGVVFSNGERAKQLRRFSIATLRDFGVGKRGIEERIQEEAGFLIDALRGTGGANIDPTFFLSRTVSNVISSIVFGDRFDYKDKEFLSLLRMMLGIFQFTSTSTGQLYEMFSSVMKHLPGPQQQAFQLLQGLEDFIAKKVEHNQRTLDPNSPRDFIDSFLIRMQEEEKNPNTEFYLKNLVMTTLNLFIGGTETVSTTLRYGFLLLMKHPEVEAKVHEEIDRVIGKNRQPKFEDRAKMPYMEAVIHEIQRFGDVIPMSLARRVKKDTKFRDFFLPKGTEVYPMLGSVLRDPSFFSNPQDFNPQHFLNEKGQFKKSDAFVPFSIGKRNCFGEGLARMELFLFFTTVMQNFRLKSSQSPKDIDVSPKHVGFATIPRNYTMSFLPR
Description: as §1, with “Cytochrome P450 Inhibition Assay: […] All” for “All”

MRC-5 = experiment: Western blot of fibrosis markers in MRC-5; assay type: cell-based, human; conditions: MRC-5, TGF-β1 and ACF-2 co-treatment
Description: RIPA lysates (BCA-normalized) were resolved by SDS-PAGE, transferred to nitrocellulose, and probed with the antibodies listed in Appendix S2. Protocols & Materials.
Cells were lysed in RIPA buffer supplemented with a Protease Inhibitor Cocktail. Protein concentrations were determined using the SMART™ BCA Protein Assay Kit. Equal amounts of protein were separated by SDS-PAGE and transferred onto nitrocellulose membranes. Membranes were blocked with 5% skim milk in TBST and incubated overnight at 4 °C with the primary antibodies indicated below. Membranes were then washed and incubated for 1 hr at room temperature with the appropriate secondary antibodies. Protein bands were visualized using the Davinch Western Imaging system according to the manufacturer’s instructions. Band intensities were quantified using ImageJ software after background subtraction. The signal intensity of each target protein was normalized to the corresponding GAPDH band, and values were further normalized to the control group (set to 1 for each independent experiment).

IC50 (CYP2C8): 6.24 µM
IC50 (CYP2C19): 8.05 µM
IC50 (CYP1A2): > 50 µM
IC50 (CYP2D6): 40.2 ± 12.4 µM
IC50 (CYP2E1): > 50 µM
IC50 (CYP2C9): 18.1 ± 4.61 µM
IC50 (CYP2A6): > 50 µM
Compound: COc1ccc(-c2c(-c3ccc(O)c(OC)c3)oc3cc(OC)c(OC)cc3c2=O)cc1 [ACF-2]
Fibronectin, COL4A6, α-SMA (Western blot) (MRC-5): same dose-dependent antifibrotic response
